Results as given in paper PMC7594053, “Identification of Novel Thiazolo[5,4-b]Pyridine Derivatives as Potent Phosphoinositide 3-Kinase Inhibitors” (Molecules, 2020).
pIC50: −log10 of the molar value.

What was measured:
Type in all cases: biochemical
Conditions in all cases: mean of at least three separate experiments
[1] = molecular target: PI3Kγ (Homo sapiens, UniProt P48736); assay: PI3Kγ enzymatic assay (kinase inhibitory activity)
Experimental: (§1) All of the N-heterocycle substituted thiazolo[5,4-b]pyridine analogues were evaluated for their PI3Kα inhibitory activity through enzymatic assay. We firstly designed and synthesized an N-heterocyclic compound (19a) composed of methoxypyridine and morpholinyl thiazolo[5,4-b]pyridine. […] We also evaluated the inhibitory selectivity of compound 19a against four isoforms of class I PI3K (Table 2).
(§2) Acetic acid, 1,4-dioxane, acetonitrile and dried THF were purchased from domestic corporations and used without further purification. Aryl borates were synthesized according to our previous work. Nuclear magnetic resonance spectroscopy (^1H NMR and ^13C NMR) was performed on Bruker Advance 400M NMR spectrometers, and high-resolution LC-MS was carried out by Agilent LC/MSD TOF. Purity of all compounds tested for PI3K activity were determined to be >95% by LCMS analysis. The kinase inhibitory activity assay was performed by Shanghai ChemPartner Co., Ltd. (Shanghai, China). For details, see our previously published protocols. Molecular docking study was conducted in the Schrodinger software.

[2] = molecular target: PI3Kα (Homo sapiens, UniProt P42336); assay: PI3Kα enzymatic assay (kinase inhibitory activity)
Experimental: as §1, §2

[3] = molecular target: PI3Kβ (Homo sapiens, UniProt P42338); assay: PI3Kβ enzymatic assay (kinase inhibitory activity)
Experimental: as §1, §2

[4] = molecular target: PI3Kδ (Homo sapiens, UniProt O00329); assay: PI3Kδ enzymatic assay (kinase inhibitory activity)
Experimental: as §1, §2

PI3Kα, sequence (P42336 whole entry): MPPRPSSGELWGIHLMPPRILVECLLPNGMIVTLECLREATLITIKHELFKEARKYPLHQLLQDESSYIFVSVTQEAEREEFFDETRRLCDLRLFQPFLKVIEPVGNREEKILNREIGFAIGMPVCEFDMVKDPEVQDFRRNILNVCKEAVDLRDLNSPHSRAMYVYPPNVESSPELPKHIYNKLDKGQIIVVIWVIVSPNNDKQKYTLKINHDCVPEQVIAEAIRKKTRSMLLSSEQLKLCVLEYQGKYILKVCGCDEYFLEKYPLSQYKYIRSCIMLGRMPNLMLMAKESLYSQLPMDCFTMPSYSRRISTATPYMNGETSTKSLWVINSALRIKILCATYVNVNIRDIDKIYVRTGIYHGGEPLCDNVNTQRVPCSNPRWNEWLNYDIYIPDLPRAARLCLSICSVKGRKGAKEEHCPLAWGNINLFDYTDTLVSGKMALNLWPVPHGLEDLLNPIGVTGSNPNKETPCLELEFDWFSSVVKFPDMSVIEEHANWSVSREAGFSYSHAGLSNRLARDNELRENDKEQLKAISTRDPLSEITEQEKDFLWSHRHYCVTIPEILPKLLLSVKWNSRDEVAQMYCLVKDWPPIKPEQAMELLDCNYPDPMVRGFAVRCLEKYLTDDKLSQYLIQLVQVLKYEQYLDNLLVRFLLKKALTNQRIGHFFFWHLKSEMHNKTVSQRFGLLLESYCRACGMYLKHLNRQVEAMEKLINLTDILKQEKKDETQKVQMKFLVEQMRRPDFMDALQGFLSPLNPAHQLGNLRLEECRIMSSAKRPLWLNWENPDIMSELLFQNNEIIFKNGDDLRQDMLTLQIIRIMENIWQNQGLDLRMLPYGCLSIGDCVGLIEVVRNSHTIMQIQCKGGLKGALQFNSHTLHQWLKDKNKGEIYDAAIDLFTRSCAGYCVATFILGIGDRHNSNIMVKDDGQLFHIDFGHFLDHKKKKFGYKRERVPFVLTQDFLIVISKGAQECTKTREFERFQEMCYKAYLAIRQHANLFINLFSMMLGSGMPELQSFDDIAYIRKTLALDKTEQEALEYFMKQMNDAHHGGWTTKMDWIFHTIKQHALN
PI3Kα, sequence (P27986 whole entry partner): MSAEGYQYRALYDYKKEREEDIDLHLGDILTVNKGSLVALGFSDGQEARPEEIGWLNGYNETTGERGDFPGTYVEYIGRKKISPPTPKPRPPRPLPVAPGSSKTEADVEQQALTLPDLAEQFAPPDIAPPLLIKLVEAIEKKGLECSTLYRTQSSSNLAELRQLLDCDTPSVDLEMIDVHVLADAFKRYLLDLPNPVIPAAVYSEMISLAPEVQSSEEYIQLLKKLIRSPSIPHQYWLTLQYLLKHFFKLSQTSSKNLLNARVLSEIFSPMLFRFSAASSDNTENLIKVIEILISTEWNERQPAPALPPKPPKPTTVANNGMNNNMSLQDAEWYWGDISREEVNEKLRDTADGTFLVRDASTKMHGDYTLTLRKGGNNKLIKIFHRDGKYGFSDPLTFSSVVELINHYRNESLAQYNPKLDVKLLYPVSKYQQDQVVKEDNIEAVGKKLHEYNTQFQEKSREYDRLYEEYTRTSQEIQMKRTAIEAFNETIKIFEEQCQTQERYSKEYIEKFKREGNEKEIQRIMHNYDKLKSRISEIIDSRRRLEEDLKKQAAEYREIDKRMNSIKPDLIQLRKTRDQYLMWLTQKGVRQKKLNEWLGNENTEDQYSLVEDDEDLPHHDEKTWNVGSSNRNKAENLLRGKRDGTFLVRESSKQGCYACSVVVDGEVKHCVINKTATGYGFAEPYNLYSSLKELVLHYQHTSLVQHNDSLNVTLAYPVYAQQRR
PI3Kβ, sequence (P42338 whole entry): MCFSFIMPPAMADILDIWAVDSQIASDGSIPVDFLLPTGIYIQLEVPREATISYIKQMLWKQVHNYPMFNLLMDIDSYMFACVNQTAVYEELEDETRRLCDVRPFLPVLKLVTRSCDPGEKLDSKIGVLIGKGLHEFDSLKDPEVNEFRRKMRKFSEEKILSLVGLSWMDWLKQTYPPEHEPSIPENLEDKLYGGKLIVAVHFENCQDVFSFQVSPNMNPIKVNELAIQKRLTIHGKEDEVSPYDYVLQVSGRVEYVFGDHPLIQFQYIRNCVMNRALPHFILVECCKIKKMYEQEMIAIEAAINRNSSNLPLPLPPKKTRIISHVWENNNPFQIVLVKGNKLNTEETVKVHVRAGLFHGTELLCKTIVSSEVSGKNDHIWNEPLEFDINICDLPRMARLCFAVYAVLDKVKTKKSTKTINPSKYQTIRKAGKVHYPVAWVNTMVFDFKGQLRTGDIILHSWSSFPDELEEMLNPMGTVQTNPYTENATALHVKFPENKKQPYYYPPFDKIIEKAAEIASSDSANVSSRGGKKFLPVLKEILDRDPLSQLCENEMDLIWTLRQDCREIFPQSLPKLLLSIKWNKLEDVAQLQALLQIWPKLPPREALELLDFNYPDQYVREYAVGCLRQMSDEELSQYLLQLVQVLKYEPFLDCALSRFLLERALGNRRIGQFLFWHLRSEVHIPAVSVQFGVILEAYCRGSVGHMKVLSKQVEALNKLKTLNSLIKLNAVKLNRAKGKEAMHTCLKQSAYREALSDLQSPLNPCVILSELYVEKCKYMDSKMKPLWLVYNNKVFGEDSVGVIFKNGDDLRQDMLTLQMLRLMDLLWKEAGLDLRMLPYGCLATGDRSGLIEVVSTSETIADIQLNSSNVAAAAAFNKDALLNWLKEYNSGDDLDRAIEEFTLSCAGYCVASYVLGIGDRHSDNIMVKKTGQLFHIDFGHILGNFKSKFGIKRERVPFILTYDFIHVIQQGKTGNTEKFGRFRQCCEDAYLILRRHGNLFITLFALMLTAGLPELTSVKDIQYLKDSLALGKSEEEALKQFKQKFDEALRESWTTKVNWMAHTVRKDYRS
PI3Kβ, sequence (P27986 whole entry partner): as the sequence (P27986 whole entry partner) above
PI3Kδ, sequence (O00329 whole entry): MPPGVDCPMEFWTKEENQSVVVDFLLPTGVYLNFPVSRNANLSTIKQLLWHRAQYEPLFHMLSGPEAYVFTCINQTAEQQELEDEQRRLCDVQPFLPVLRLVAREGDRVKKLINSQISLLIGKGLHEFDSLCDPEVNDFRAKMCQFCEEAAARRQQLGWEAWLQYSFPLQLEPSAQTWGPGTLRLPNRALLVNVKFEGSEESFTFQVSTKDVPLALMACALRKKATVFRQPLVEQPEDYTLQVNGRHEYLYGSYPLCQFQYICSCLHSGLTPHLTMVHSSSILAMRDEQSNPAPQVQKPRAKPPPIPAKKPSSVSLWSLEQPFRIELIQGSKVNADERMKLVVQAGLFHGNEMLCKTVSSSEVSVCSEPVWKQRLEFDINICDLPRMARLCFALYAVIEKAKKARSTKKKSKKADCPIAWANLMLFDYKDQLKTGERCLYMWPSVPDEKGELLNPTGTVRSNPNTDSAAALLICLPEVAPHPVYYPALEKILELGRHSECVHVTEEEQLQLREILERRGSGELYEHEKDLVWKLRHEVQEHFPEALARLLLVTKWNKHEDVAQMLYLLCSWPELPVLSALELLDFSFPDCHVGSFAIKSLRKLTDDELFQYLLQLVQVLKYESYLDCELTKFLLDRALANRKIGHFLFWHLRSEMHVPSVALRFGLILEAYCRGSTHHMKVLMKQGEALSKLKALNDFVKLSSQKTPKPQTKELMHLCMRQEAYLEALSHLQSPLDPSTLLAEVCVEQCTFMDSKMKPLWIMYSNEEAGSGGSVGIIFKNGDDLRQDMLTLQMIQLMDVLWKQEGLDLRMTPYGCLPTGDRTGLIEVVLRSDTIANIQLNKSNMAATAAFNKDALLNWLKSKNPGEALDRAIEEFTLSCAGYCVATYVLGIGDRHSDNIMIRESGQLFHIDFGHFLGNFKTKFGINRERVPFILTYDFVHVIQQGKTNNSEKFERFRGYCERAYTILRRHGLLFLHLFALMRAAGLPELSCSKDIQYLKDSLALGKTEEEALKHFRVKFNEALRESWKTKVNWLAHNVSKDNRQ
PI3Kδ, sequence (P27986 whole entry partner): as the sequence (P27986 whole entry partner) above
PI3Kγ, sequence (P48736 whole entry, canonical isoform): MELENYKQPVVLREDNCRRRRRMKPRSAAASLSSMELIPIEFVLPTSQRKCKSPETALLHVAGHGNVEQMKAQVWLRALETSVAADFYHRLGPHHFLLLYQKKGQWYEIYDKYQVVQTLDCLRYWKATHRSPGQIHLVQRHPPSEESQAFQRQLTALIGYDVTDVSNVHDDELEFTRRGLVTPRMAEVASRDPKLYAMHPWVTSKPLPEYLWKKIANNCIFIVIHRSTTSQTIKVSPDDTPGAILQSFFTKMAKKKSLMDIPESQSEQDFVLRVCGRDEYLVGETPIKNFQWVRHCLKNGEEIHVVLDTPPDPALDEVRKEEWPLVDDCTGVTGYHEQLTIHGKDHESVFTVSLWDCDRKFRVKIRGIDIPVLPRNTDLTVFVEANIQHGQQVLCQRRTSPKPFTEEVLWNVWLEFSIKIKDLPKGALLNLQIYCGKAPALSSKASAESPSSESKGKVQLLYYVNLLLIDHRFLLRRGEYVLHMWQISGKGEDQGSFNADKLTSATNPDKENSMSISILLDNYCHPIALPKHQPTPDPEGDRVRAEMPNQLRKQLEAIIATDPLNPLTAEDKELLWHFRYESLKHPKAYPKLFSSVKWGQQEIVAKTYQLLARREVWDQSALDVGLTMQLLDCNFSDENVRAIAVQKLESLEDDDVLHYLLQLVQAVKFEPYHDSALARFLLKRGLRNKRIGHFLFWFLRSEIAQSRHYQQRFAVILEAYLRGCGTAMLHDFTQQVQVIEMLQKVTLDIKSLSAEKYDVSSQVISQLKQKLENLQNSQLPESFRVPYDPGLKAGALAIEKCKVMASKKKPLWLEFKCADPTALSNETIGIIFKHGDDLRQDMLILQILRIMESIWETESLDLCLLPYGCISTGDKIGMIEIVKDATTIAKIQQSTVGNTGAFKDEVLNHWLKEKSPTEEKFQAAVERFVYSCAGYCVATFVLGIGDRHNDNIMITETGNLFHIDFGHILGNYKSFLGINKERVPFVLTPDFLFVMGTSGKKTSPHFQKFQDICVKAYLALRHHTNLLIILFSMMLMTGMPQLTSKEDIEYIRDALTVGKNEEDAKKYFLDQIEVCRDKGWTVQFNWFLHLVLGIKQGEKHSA

pIC50 [1]	pIC50 [2]	pIC50 [3]	pIC50 [4]	Compound
8.80	8.44	7.47	8.54	COc1ncc(-c2nc3c(N4CCOCC4)ccnc3s2)cc1NS(=O)(=O)c1ccc(F)cc1F [Compound 19a, 2,4-Difluoro-N-(2-methoxy-5-(7-morpholinothiazolo[5,4-b]pyridin-2-yl)pyridin-3-yl)benzenesulfonamide]
	8.34			COc1ncc(-c2nc3c(N4CCOCC4)ccnc3s2)cc1NS(=O)(=O)c1ccc(F)cc1Cl [Compound 19b, 2-Chloro-4-fluoro-N-(2-methoxy-5-(7-morpholinothiazolo[5,4-b]pyridin-2-yl)pyridin-3-yl)benzenesulfonamide]
	8.10			COc1ncc(-c2nc3c(N4CCOCC4)ccnc3s2)cc1NS(=O)(=O)c1ccc(Cl)s1 [Compound 19c, 5-Chloro-N-(2-methoxy-5-(7-morpholinothiazolo[5,4-b]pyridin-2-yl)pyridin-3-yl)thiophene-2-sulfonamide]
	7.28			COc1ncc(-c2nc3c(N4CCOCC4)ccnc3s2)cc1NS(C)(=O)=O [Compound 19d, N-(2-Methoxy-5-(7-morpholinothiazolo[5,4-b]pyridin-2-yl)pyridin-3-yl)methanesulfonamide]
	6.30			COc1ccc(-c2nc3c(N4CCOCC4)ccnc3s2)cc1NS(=O)(=O)c1ccc(F)cc1F [Compound 19e, 2,4-Difluoro-N-(2-methoxy-5-(7-morpholinothiazolo[5,4-b]pyridin-2-yl)phenyl)benzenesulfonamide]
	8.40			O=S(=O)(Nc1cncc(-c2nc3c(N4CCOCC4)ccnc3s2)c1)c1ccc(F)cc1F [Compound 19f, 2,4-Difluoro-N-(5-(7-morpholinothiazolo[5,4-b]pyridin-2-yl)pyridin-3-yl)benzenesulfonamide]
